Source: patent publication EP1071442B9, “METHODS AND COMPOSITIONS FOR PEPTIDE SYNTHESIS (T-20)” (priority 1998, dated 1999)
Residues, ends and D or L forms follow the SMILES beside them. *: point of attachment. NHTrityl = c1ccc(C(N*)(c2ccccc2)c2ccccc2)cc1; Fmoc = O=C(OCC1c2ccccc2-c2ccccc21)*; Boc = CC(C)(C)OC(=O)*; OtBu = CC(C)(C)O*; tBu = CC(C)(C)*

Columns and labels:
[1] = thermal stability of T-20 fragments (water-saturated or dry) at elevated temperatures, purity change by HPLC; type: physicochemical
Protocol: A series of experiments were conducted at to characterize the thermal stability of the intermediate T-20 fragments. T-20 fragments were saturated with water, filtered and then placed in enclosed containers and exposed to elevated temperatures. At several time points samples were collected and analyzed by HPLC methods to access the purity changes. Stability of the dry T-20 fragments was also characterized by thermogravimetric analysis (TGA).

## CC(C)C[C@H](NC(=O)[C@H](COC(C)(C)C)NC(=O)[C@H](C)NC(=O)[C@H](Cc1cn(C(=O)OC(C)(C)C)c2ccccc12)NC(=O)[C@H](CCCCNC(=O)OC(C)(C)C)NC(=O)[C@H](CC(=O)OC(C)(C)C)NC(=O)OCC1c2ccccc2-c2ccccc21)C(=O)N[C@@H](Cc1cn(C(=O)OC(C)(C)C)c2ccccc12)C(=O)N[C@@H](CC(=O)NC(c1ccccc1)(c1ccccc1)c1ccccc1)C(=O)N[C@@H](Cc1cn(C(=O)OC(C)(C)C)c2ccccc12)C(=O)N[C@@H](Cc1ccccc1)C(N)=O [F(27-36)-NH2] (Fmoc-D(OtBu)K(Boc)W(Boc)AS(tBu)LW(Boc)D(NHTrityl)W(Boc)F-NH2)
[1]; after 24 hours at 80 °C
  degradation: 1.4%
[1]; drying at 40 °C
  stability to drying: stable

## CC(C)C[C@H](NC(=O)[C@H](CCC(=O)OC(C)(C)C)NC(=O)[C@H](CC(C)C)NC(=O)[C@H](CC(C)C)NC(=O)[C@H](CCC(=O)OC(C)(C)C)NC(=O)[C@H](CCC(=O)NC(c1ccccc1)(c1ccccc1)c1ccccc1)NC(=O)[C@H](CCC(=O)OC(C)(C)C)NC(=O)[C@H](CC(=O)NC(c1ccccc1)(c1ccccc1)c1ccccc1)NC(=O)[C@H](CCCCNC(=O)OC(C)(C)C)NC(=O)[C@H](CCC(=O)OC(C)(C)C)NC(=O)OCC1c2ccccc2-c2ccccc21)C(=O)O [F(17-26)-OH] (Fmoc-E(OtBu)K(Boc)D(NHTrityl)E(OtBu)E(NHTrityl)E(OtBu)LLE(OtBu)L-OH)
other
  stability in 1% TFA/DCM: 1 %/day
